Test results: patent US11655238B2 (priority 2018, dated 2023)
≈ marks a conversion by molar mass, not a printed value. Like-named read-outs stand apart in the source and are kept apart here.

Key:
Type in all cases: cell-based
[1] = system: Mycobacterium smegmatis strain (mc2155); assay: Resazurin microplate MIC on Mycobacterium smegmatis; settings: for MIC: Mycolicibacterium smegmatis, MC2155, 48 h
[2] = system: Mycobacterium bovis BCG strain; assay: microbe, parasite or virus in culture; settings: for MIC: Mycobacterium tuberculosis variant bovis BCG, BCG, 168 h, read-out: MIC (μg/mL) Mycobacterium bovis BCG, BCG strain, 7H9 medium, 37° C., 168 hours, resazurin; for inhibitory effect on BCG strain (summary of Table 2): in words
[3] = system: Mycobacterium tuberculosis H37Ra strain; assay: microbe, parasite or virus in culture; settings: for MIC: Mycobacterium tuberculosis, H37RA, 168 h, read-out: MIC (μg/mL) Mycobacterium tuberculosis H37Ra
[4] = mc2155, 7H9 medium, 37° C., 48 hours, resazurin, read-out: MIC (μg/mL) Mycobacterium smegmatis

Compound	MIC [1, 4] [µg/mL]	MIC [2] [µg/mL]	MIC [3] [µg/mL]	inhibitory effect on smegmatis strain (summary of Table 2) [1]	inhibitory effect on BCG strain (summary of Table 2) [2]	inhibitory effect on H37Ra strain (summary of Table 2) [3]	MIC ([1]; read-out: MIC (μg/mL) Mycobacterium smegmatis, mc2155, 7H9 medium, 37° C., 48 hours, resazurin) [µg/mL]
Cc1c(CNC(=O)NC23CC4CC(CC(C4)C2)C3)nn(-c2ccc(Cl)cc2Cl)c1-c1ccc(Cl)cc1 [Compound 10, 1-((3s,5s,7s)-adamantan-1-yl)-3-((5-(4-chlorophenyl)-1-(2,4-dichlorophenyl)-4-methyl-1H-pyrazol-3-yl)methyl)urea]	171 (≈ 314 µM)	> 171	> 171				
Cc1c(CNC(=O)NCC23CC4CC(CC(C4)C2)C3)nn(-c2ccc(Cl)cc2Cl)c1-c1ccc(Cl)cc1 [Compound 11, 1-(((3r,5r,7r)-adamantan-1-yl)-methyl)-3-((5-(4-chlorophenyl)-1-(2,4-dichlorophenyl)-4-methyl-1H-pyrazol-3-yl)-methyl)urea]	134 (≈ 240 µM)	> 134	33.5 (≈ 60.1 µM)				
Cc1c(CNC(=O)NCCC23CC4CC(CC(C4)C2)C3)nn(-c2ccc(Cl)cc2Cl)c1-c1ccc(Cl)cc1 [Compound 12, 1-(2-((3r,5r,7r)-adamantan-1-yl)ethyl)-3-((5-(4-chloro-phenyl)-1-(2,4-dichlorophenyl)-4-methyl-1H-pyrazol-3-yl)-methyl)urea]	15.2 (≈ 26.6 µM)	> 122	122 (≈ 213 µM)				
Cc1c(C(=O)NCCNC2C3CC4CC(C3)CC2C4)nn(-c2ccc(Cl)cc2Cl)c1-c1ccc(Cl)cc1 (stereo not drawn) [Compound 17, N-(2-(((1r,3r,5r,7r)-adamantan-2-yl)amino)ethyl)-5-(4-chloro-phenyl)-1-(2,4-dichlorophenyl)-4-methyl-1H-pyrazole-3-carboxamide]	11.9 (≈ 21.3 µM)	5.95 (≈ 10.7 µM)	5.95 (≈ 10.7 µM)	good inhibitory effects	good inhibitory effects	good inhibitory effects	
Cc1c(C(=O)NCCCNC2C3CC4CC(C3)CC2C4)nn(-c2ccc(Cl)cc2Cl)c1-c1ccc(Cl)cc1 (stereo not drawn) [Compound 18, N-(3-(((1r,3r,5r,7r)-adamantan-2-yl)amino)propyl)-5-(4-chlorophenyl)-1-(2,4-dichlorophenyl)-4-methyl-1H-pyrazole-3-carboxamide]	24.4 (≈ 42.6 µM)	6.1 (≈ 10.7 µM)	6.1 (≈ 10.7 µM)	good inhibitory effects	good inhibitory effects	good inhibitory effects	
Cc1c(C(=O)NCCCCNC2C3CC4CC(C3)CC2C4)nn(-c2ccc(Cl)cc2Cl)c1-c1ccc(Cl)cc1 (stereo not drawn) [Compound 19, N-(4-(((1r,3r,5r,7r)-adamantan-2-yl)amino)butyl)-5-(4-chlorophenyl)-1-(2,4-dichlorophenyl)-4-methyl-1H-pyrazole-3-carboxamide]	13.4 (≈ 22.9 µM)	6.71 (≈ 11.5 µM)	6.71 (≈ 11.5 µM)	good inhibitory effects	good inhibitory effects	good inhibitory effects	
Cc1c(C(=O)NCCNC23CC4CC(C)(CC(C)(C4)C2)C3)nn(-c2ccc(Cl)cc2Cl)c1-c1ccc(Cl)cc1 [Compound 23, (5-(4-chlorophenyl)-1-(2,4-dichlorophenyl)-N-(2-(((1r,3R,5S,7r)-3,5-dimethyl-adamantan-1-yl)amino)ethyl)-4-methyl-1H-pyrazole-3-carboxamide]	7.32 (≈ 12.5 µM)	3.66 (≈ 6.25 µM)	1.83 (≈ 3.12 µM)	good inhibitory effects	good inhibitory effects	good inhibitory effects	
Cc1c(C(=O)N(C)CCNC2C3CC4CC(C3)CC2C4)nn(-c2ccc(Cl)cc2Cl)c1-c1ccc(Cl)cc1 (stereo not drawn) [Compound 74, N-(2-(((1r,3r,5r,7r)-adamantan-2-yl)amino)ethyl)-5-(4-chlorophenyl)-1-(2,4-dichlorophenyl)-N,4-dimethyl-1H-pyrazole-3-carboxamide]	13.4 (≈ 23.4 µM)	3.35 (≈ 5.86 µM)	3.35 (≈ 5.86 µM)	good inhibitory effects	good inhibitory effects	good inhibitory effects	
Cc1c(C(=O)NCCNC2C3CC4CC(C3)CC2C4)nn(-c2ccc(F)cc2F)c1-c1ccc(Cl)cc1 (stereo not drawn) [Compound 76, N-(2-(((1r,3r,5r,7r)-adamantan-2-yl)amino)ethyl)-5-(4-chloro-phenyl)-1-(2,4-difluorophenyl)-4-methyl-1H-pyrazole-3-carboxamide]	7.32 (≈ 13.9 µM)	3.66 (≈ 6.97 µM)	1.83 (≈ 3.49 µM)	good inhibitory effects	good inhibitory effects	good inhibitory effects	
Cc1ccc(-n2nc(C(=O)NCCNC3C4CC5CC(C4)CC3C5)c(C)c2-c2ccc(Cl)cc2)c(C)c1 (stereo not drawn) [Compound 77, N-(2-(((1r,3r,5r,7r)-adamantan-2-yl)amino)ethyl-5-(4-chloro-phenyl)-1-(2,4-dimethylphenyl)-4-methyl-1H-pyrazole-3-carboxamide]	10.4 (≈ 20 µM)	5.18 (≈ 10 µM)	2.59 (≈ 5.01 µM)	good inhibitory effects	good inhibitory effects	good inhibitory effects	
Cc1c(C(=O)NCCNC23CC4CC(CC(C4)C2)C3)nn(-c2ccc(Cl)cc2Cl)c1-c1ccc(Cl)cc1 [Compound 163, N-(2-(((3s,5s,7s)-adamantan-1-yl)amino)ethyl)-5-(4-chloro-phenyl)-1-(2,4-dichloro-phenyl)-4-methyl-1H-pyrazole-3-carboxamide]	14.6 (≈ 26.2 µM)	3.66 (≈ 6.56 µM)	3.66 (≈ 6.56 µM)	good inhibitory effects	good inhibitory effects	good inhibitory effects	
Cc1c(CNCCCNC2C3CC4CC(C3)CC2C4)nn(-c2ccc(Cl)cc2Cl)c1-c1ccc(Cl)cc1 (stereo not drawn) [Compound 164, N1-((1r,3r,5r,7r)-adamantan-2-yl)-N3-((5-(4-chloro-phenyl)-1-(2,4-dichloro-phenyl)-4-methyl-1H-pyrazol-3-yl)methyl)propane-1,3-diamine]	> 207	3.24 (≈ 5.81 µM)	3.24 (≈ 5.81 µM)				
Cc1c(CN(C)CCNC2C3CC4CC(C3)CC2C4)nn(-c2ccc(Cl)cc2Cl)c1-c1ccc(Cl)cc1 (stereo not drawn) [Compound 165, N1-((1r,3r,5r,7r)-adamantan-2-yl)-N2-((5-(4-chloro-phenyl)-1-(2,4-dichloro-phenyl)-4-methyl-1H-pyrazol-3-yl)methyl)-N2-methylethane-1,2-diamine]	57.9 (≈ 104 µM)	3.62 (≈ 6.49 µM)	1.81 (≈ 3.24 µM)				
Cc1c(CNCCNC2C3CC4CC(C3)CC2C4)nn(-c2ccc(Cl)cc2Cl)c1-c1ccc(Cl)cc1 (stereo not drawn) [Compound 166, N1-((1r,3r,5r,7r)-adamantan-2-yl)-N2-((5-(4-chlorophenyl)-1-(2,4-dichlorophenyl)-4-methyl-1H-pyrazol-3-yl)-methyl)ethane-1,2-diamine]	7.62 (≈ 14 µM)	7.62 (≈ 14 µM)	3.81 (≈ 7 µM)				
Cc1c(CNCCCCNC2C3CC4CC(C3)CC2C4)nn(-c2ccc(Cl)cc2Cl)c1-c1ccc(Cl)cc1 (stereo not drawn) [Compound 167, N1-((1r,3r,5r,7r)-adamantan-2-yl)-N4-((5-(4-chlorophenyl)-1-(2,4-dichlorophenyl)-4-methyl-1H-pyrazol-3-yl)-methyl)butane-1,4-diamine]	2.1 (≈ 3.67 µM)	1.05 (≈ 1.84 µM)	2.1 (≈ 3.67 µM)				
Cc1c(CNS(=O)(=O)CCNC23CC4CC(C)(CC(C)(C4)C2)C3)nn(-c2ccc(Cl)cc2Cl)c1-c1ccc(Cl)cc1 [Compound 168, N-((5-(4-chlorophenyl)-1-(2,4-dichlorophenyl)-4-methyl-1H-pyrazol-3-yl)methyl)-2-(((1r,3R,5S,7r)-3,5-dimethyl-adamantan-1-yl)amino)ethane-1-sulfonamide]	21.3 (≈ 33.5 µM)	21.3 (≈ 33.5 µM)	10.7 (≈ 16.8 µM)				
Cc1c(CNC(=O)CNC23CC4CC(C)(CC(C)(C4)C2)C3)nn(-c2ccc(Cl)cc2Cl)c1-c1ccc(Cl)cc1 [Compound 169, N-((5-(4-chlorophenyl)-1-(2,4-dichlorophenyl)-4-methyl-1H-pyrazol-3-yl)methyl)-2-(((1r,3R,5S,7r)-3,5-dimethyl-adamantan-1-yl)amino)-acetamide]	0.95 (≈ 1.62 µM)	1.91 (≈ 3.26 µM)	1.91 (≈ 3.26 µM)				
Cc1c(C(=O)N2CCN(C(=O)C34CC5CC(CC(C5)C3)C4)CC2)nn(-c2ccc(Cl)cc2Cl)c1-c1ccc(Cl)cc1 [Compound 170, ((3r,5r,7r)-adamantan-1-yl)(4-(5-(4-chlorophenyl)-1-(2,4-dichlorophenyl)-4-methyl-1H-pyrazole-3-carbonyl)piperazin-1-yl)methanone]	> 293	> 293	> 293				
Cc1c(C(=O)OC2CC3CCC2(C)C3(C)C)nn(-c2ccc(Cl)cc2Cl)c1-c1ccc(Cl)cc1 (stereo not drawn) [Compound 171, 1,7,7-trimethylbicyclo[2.2.1]-heptan-2-yl 5-(4-chlorophenyl)-1-(2,4-dichlorophenyl)-4-methyl-1H-pyrazole-3-carbox-ylate]	200 (≈ 386 µM)	> 200	> 200				
Cc1c(C(=O)O[C@H]2C[C@@H]3CC[C@@]2(C)C3(C)C)nn(-c2ccc(Cl)cc2Cl)c1-c1ccc(Cl)cc1 [Compound 172, (1S,2S,4S)-1,7,7-trimethyl-bicyclo[2.2.1]heptan-2-yl 5-(4-chlorophenyl)-1-(2,4-dichlorophenyl)-4-methyl-1H-pyrazole-3-carboxylate]		> 338	84.5 (≈ 163 µM)				> 338
